Data as given in ChEMBL document CHEMBL1201862, “PubChem BioAssay data set” (2004).
Activity calls are given as the source filed them.

Key:
[1] = target: Voltage-gated inwardly rectifying potassium channel KCNH2 (Homo sapiens, UniProt Q12809); conditions: Potency;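 note: confirmatory quantitative high-throughput screen measuring inhibition of hERG channel activity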
Cytochrome P450 3A4 = Cytochrome P450 3A4 (Homo sapiens, UniProt P08684);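 note: CYP3A4 tested as one member of a cytochrome P450 panel screen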
[2] = target: Heat shock protein HSP 90-alpha (Homo sapiens, UniProt P07900); type: functional, organism-based
[3] = viability of uninfected HEp-2 cells – cell-based, HTS, cytotoxicity control for RSV inhibitor project, dose response (AID 2410); type: functional; conditions: human respiratory syncytial virus
Vero = assay: cells; type: functional; conditions: Chlorocebus sabaeus
Beta-galactosidase = Beta-galactosidase (Escherichia coli, UniProt Q8VNN2); assay: detection-enzyme interference by beta-gal modulators – biochemical, E. coli enzyme, set 3, artefact control for CCR6 antagonist project, dose response (AID 504712); type: functional
HEK293 [4] = assay: cells; conditions: Homo sapiens
HEK293 [5] = assay: cells; conditions: Homo sapiens; remark: listed apart in the source
[6] = target: T1, Sentrin-specific protease 6 (Homo sapiens, UniProt Q9GZR1); assay: SAR Analysis of small molecule inhibitors of Sentrin-specific protease 6 (SENP6) using a Luminescent assay. [Related pubchem assays (depositor defined):AID2582, AID2599]; type: functional
T1 sequence (Q9GZR1 whole entry): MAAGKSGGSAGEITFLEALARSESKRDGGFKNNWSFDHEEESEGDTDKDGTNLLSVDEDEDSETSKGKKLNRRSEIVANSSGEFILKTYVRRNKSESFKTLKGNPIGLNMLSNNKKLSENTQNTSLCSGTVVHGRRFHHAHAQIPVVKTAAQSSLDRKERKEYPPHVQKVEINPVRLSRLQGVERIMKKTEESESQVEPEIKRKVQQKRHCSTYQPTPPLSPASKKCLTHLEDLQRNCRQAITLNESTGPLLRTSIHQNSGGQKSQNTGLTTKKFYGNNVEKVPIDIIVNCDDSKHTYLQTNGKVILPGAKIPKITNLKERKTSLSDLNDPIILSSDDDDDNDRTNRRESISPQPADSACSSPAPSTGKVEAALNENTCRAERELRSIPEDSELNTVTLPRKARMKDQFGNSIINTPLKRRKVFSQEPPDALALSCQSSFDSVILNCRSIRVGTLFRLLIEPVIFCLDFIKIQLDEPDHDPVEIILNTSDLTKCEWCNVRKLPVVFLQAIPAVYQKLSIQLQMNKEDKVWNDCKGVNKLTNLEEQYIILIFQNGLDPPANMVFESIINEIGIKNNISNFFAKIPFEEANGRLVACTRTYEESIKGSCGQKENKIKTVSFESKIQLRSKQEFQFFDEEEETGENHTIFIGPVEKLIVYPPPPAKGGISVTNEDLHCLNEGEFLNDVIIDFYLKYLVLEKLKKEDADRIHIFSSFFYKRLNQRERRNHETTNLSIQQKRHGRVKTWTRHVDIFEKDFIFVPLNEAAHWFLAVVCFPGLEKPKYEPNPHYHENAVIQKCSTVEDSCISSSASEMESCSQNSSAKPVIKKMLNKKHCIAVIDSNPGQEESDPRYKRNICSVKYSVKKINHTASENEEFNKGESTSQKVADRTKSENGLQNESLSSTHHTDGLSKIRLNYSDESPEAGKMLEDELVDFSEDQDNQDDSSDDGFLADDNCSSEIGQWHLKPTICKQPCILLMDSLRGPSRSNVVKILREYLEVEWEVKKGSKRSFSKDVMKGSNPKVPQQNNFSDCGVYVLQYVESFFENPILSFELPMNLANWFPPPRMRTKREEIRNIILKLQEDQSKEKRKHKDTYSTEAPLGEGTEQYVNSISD

[7] = target: T2, Sentrin-specific protease 7 (Homo sapiens, UniProt Q9BQF6); assay: inhibition of human SENP7 cleavage activity – biochemical, luminescence, set 2, SAR follow-up (AID 588600); type: functional
T2 sequence (Q9BQF6 whole entry): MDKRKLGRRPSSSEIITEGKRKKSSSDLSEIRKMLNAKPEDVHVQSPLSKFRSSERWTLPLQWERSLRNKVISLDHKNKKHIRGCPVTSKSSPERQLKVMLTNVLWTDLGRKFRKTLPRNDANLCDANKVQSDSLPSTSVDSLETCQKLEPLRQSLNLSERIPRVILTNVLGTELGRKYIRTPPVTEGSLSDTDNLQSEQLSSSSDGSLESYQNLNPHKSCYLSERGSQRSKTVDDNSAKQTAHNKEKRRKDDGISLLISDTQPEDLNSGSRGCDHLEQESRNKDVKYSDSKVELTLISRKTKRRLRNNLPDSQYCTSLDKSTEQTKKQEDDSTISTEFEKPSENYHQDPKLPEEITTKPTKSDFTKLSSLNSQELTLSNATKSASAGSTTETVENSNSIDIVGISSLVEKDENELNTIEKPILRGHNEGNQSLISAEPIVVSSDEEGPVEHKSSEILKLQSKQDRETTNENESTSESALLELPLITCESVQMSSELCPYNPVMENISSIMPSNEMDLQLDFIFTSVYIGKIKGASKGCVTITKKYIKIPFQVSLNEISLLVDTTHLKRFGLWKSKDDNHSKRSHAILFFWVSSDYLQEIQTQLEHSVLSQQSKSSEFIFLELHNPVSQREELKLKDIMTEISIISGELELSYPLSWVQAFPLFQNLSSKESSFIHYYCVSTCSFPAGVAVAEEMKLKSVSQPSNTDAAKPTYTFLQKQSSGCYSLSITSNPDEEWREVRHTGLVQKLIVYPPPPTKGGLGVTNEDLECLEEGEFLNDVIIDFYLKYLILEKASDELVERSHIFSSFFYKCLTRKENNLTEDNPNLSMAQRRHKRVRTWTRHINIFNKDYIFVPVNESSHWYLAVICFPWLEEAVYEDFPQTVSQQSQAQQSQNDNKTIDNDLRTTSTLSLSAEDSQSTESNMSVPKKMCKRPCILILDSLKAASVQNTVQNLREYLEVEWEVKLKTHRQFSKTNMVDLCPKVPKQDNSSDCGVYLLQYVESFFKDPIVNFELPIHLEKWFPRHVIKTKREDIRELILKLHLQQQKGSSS

[8] = target: T2, Sentrin-specific protease 7; assay: inhibition of human SENP7 cleavage activity – biochemical, luminescence, SAR follow-up (AID 504497); type: functional
Caspase-3 [9] = target: T3, Caspase-3 (Homo sapiens, UniProt P42574); assay: inhibition of recombinant caspase-3 activity – biochemical, luminescence, set 2, selectivity assay for SENP protease inhibitor project, SAR follow-up (AID 588599); type: functional
T3 sequence (P42574 whole entry): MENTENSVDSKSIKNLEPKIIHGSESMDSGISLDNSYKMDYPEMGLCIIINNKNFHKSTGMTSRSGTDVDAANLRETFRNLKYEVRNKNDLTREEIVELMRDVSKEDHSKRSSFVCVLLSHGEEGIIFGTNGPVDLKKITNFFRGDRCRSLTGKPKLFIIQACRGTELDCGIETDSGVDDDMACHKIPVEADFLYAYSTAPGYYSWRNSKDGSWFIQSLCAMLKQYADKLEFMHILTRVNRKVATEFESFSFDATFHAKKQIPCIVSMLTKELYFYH

[10] = target: T1, Sentrin-specific protease 6; assay: inhibition of human SENP6 catalytic domain – biochemical, luminescence, set 2, SAR follow-up (AID 588598); type: functional
[11] = target: T4, Sentrin-specific protease 8 (Homo sapiens, UniProt Q96LD8); assay: inhibition of human SENP8 cleavage activity – biochemical, luminescence, SAR follow-up (AID 504501); type: functional
T4 sequence (Q96LD8 whole entry): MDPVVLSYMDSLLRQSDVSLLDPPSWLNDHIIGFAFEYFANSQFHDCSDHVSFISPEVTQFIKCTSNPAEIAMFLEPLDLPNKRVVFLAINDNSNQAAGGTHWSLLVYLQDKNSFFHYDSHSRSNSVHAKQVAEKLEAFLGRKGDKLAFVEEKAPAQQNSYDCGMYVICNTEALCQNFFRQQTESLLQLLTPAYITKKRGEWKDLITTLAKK

Caspase-3 [12] = target: T3, Caspase-3; assay: SAR Analysis of small molecule inhibitors of Sentrin-specific proteases (SENPs) using a Caspase-3 Selectivity assay. [Related pubchem assays (depositor defined):AID2540, AID2599, AID434973, AID489001]; type: functional
[13] = target: T4, Sentrin-specific protease 8; assay: inhibition of sentrin protease 8 – biochemical, luminescence, set 2, SAR follow-up (AID 588601); type: functional
INS1 = assay: INS-1E survival protection against cytokine death – cell-based, luminescence, retest, dose response (AID 449756); type: functional; conditions: Rattus norvegicus;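 note: cell death triggered by IL-1 beta plus TNF-alpha plus IFN-gamma mixture; protective hits raise ATP signal compared with cytokine alone wells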
[14] = reduced cellular PGC1a acetyl-lysine signal – cell-based, cherry-picked samples, dose response (AID 720514); type: functional;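 note: potency may reflect raised or lowered acetylation signal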
A-375 = assay: proliferation inhibition in MITF-low A375 cells – cell-based, cherry-pick samples, set 2, counter-screen for MITF modulator project, dose response (AID 540335); type: functional; conditions: Homo sapiens
[15] = target: T5, Microphthalmia-associated transcription factor (Homo sapiens, UniProt O75030); assay: reducers of TRPM1 reporter luminescence, concentration series – cell-based, SK-MEL-5, cherry-picked, set 3, MITF inhibitor project, dose response (AID 493073); type: functional;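 note: SK-MEL-5 melanoma cells with luciferase driven by the MITF target TRPM1 promoter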
T5 sequence (O75030 whole entry): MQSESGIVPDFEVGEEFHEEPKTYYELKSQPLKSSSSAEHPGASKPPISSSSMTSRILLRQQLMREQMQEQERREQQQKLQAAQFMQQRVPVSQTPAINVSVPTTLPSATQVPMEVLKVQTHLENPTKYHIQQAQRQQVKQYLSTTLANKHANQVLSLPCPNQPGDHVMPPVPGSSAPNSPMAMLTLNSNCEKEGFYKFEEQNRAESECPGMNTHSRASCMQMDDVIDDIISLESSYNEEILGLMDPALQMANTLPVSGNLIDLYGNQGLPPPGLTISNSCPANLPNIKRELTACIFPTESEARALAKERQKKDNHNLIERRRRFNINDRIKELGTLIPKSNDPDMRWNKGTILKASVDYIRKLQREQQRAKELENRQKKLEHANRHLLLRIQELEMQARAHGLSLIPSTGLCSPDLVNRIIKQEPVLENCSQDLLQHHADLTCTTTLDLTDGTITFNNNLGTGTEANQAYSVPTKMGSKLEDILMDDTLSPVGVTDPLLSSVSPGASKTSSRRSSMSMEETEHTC

[16] = reduction of Shn3 3'UTR-driven luciferase in osteoblasts – cell-based, Clone20 osteoblasts, firefly luciferase, cherry-picked, dose response (AID 624132); type: functional;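 note: firefly luciferase luminescence from reporter carrying the Shn3 3'UTR in osteoblasts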
[17] = target: T6, Polyadenylate-binding protein 1 (Homo sapiens, UniProt P11940); assay: MLLE binding blockers, Cy5 peptide tracer – biochemical, fluorescence polarization, Cy5-PAM2 peptide, secondary, miRNA deadenylation inhibitor project, dose response (AID 602260); type: functional; conditions: read-out: IC50_Mean
[18] = target: T6, Polyadenylate-binding protein 1; assay: MLLE domain peptide-binding blockers, IC50 – biochemical, fluorescence polarization, FITC-PAM2 peptide, dose response (AID 602259); type: functional; conditions: read-out: IC50_Mean
[19] = non-specific 3'UTR reporter inhibition in Clone20-Shn3RL – cell-based, Renilla luciferase, cherry-picked, counter-screen for Shn3 inhibitor project, dose response (AID 624133); type: functional
[20] = loss of viability in HepG2 cells – cell-based, CellTiter-Glo, cherry-picked, cytotoxicity control for Shn3 inhibitor project, dose response (AID 624134); type: functional

T6 sequence (P11940 whole entry, the tested form may be a part): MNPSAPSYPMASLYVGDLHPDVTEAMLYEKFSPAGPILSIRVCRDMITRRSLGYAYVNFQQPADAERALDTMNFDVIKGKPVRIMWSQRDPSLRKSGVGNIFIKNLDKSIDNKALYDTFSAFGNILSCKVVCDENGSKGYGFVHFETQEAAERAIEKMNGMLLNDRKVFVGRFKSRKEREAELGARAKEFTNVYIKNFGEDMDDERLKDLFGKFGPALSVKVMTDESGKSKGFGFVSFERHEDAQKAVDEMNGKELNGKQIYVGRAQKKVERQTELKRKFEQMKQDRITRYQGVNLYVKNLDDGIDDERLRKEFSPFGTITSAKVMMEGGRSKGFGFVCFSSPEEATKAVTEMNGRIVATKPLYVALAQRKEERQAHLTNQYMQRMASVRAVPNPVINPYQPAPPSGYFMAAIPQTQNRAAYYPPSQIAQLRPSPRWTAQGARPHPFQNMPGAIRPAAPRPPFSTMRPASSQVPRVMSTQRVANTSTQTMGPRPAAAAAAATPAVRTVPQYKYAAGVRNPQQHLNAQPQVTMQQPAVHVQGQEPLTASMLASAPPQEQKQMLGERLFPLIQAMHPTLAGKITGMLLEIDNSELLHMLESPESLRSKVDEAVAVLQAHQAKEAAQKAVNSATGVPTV
Chain of Voltage-gated inwardly rectifying potassium channel KCNH2 (Q12809 whole entry): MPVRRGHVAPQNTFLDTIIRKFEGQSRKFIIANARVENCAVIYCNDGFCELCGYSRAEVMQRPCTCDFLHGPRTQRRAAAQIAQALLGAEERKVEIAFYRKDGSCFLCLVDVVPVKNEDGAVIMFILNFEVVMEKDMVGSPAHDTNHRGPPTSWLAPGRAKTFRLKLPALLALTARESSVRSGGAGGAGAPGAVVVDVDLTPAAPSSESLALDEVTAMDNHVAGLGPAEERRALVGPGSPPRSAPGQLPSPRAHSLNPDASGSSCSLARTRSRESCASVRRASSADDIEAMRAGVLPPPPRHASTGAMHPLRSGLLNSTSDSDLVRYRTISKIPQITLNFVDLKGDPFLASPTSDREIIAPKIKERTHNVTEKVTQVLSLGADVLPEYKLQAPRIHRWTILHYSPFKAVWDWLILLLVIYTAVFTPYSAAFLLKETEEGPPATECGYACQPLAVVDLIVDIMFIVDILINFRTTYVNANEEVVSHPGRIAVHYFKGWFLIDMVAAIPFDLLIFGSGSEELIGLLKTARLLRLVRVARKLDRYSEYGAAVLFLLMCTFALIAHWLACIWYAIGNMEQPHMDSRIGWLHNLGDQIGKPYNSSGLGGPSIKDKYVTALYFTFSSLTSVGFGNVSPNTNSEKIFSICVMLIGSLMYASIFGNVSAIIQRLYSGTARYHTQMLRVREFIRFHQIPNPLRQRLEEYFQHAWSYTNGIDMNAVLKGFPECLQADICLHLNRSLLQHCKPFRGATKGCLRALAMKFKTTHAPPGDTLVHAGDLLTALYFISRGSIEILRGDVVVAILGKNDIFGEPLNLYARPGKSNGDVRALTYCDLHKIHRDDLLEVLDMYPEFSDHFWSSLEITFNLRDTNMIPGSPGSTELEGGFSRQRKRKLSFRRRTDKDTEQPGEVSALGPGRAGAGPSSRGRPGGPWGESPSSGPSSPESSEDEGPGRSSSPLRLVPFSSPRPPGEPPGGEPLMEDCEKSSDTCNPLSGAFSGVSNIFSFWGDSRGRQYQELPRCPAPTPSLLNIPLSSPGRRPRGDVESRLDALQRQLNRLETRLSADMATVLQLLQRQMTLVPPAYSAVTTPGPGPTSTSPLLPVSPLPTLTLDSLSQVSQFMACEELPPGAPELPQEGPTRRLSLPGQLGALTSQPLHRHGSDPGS
Chain of Cytochrome P450 3A4 (P08684 whole entry): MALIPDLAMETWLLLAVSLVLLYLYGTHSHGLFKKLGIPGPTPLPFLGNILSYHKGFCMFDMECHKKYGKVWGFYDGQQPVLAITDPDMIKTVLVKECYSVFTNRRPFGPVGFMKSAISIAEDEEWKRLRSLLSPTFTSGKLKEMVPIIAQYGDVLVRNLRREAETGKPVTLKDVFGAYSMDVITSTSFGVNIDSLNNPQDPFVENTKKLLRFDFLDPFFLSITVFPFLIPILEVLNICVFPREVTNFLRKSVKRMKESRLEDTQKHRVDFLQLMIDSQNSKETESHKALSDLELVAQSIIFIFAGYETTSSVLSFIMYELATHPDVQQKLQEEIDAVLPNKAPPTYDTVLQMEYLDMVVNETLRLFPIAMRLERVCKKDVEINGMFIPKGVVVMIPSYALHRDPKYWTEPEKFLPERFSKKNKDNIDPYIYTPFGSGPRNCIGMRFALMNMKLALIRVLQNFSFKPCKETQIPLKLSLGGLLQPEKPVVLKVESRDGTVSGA
Chain of Beta-galactosidase (Q8VNN2 whole entry): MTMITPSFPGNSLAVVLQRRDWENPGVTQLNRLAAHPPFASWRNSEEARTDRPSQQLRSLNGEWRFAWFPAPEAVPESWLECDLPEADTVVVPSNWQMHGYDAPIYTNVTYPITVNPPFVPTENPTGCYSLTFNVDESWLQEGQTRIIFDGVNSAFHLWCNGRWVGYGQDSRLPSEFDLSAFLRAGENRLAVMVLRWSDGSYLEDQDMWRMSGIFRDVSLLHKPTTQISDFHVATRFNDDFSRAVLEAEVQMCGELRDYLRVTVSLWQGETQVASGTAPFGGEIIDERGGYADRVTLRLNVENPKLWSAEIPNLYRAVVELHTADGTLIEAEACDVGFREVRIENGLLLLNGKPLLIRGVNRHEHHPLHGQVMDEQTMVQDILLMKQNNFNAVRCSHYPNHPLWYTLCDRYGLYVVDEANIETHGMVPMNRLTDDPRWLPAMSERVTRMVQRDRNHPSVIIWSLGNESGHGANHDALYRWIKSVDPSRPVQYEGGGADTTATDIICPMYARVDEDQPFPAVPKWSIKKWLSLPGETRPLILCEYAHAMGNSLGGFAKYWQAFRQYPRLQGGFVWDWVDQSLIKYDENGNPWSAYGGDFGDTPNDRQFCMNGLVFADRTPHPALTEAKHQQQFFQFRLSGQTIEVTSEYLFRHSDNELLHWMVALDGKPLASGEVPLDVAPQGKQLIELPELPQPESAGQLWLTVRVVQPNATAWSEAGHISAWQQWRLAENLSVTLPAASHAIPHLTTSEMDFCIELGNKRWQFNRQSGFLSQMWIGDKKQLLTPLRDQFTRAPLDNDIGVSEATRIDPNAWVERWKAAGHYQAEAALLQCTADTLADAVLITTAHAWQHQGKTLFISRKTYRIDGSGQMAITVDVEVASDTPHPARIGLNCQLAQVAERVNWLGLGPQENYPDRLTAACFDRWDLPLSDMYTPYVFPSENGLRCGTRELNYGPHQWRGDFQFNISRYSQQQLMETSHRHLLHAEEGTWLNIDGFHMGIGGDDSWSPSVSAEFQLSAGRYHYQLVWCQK

[Cl-].[Li+] [CHLOROLITHIUM]
AC50 [1]: 6.31 µM (inconclusive) | AC50 (Cytochrome P450 3A4): 31.6 µM (inconclusive)

CCCCCCCCCCCCCCCC(=O)OC(CC(=O)O)C[N+](C)(C)C (stereo not drawn)
AC50 [2]: 1.39 µM (active) | AC50 [1]: 35.5 µM (inconclusive) | CC50 [3]: 23.7 µM (active)

O=C1Nc2ccc(Br)cc2/C1=C/C(=O)c1ccccc1
CC50 (Vero): 19.1 µM (active) | AC50 [2]: 0.986 µM (active) | IC50 (Beta-galactosidase): > 66.6 µM (inactive) | EC50 (HEK293 [4]): > 59.6 µM (inactive) | EC50 (HEK293 [5]): > 59.6 µM (inactive)

Cc1csc(C(=O)Nc2nc3ccccc3s2)c1
IC50 [6]: 2.8 µM (active) | IC50 [7]: 19.2 µM (active) | IC50 [8]: 1.8 µM (active) | IC50 (Caspase-3 [9]): 34 µM (active) | IC50 [10]: 23.4 µM (active) | IC50 [11]: 3.2 µM (active) | IC50 (Caspase-3 [12]): 3.6 µM (active) | IC50 [13]: 21.4 µM (active)

COc1cc(NC(=O)c2[nH]cnc2C(N)=O)cc(C(=O)Nc2cccc(C(F)(F)F)c2)c1
AC50 (INS1): 3.48 µM (active) | AC50 [14]: 6.34 µM (active) | AC50 (A-375): 17 µM (active) | AC50 [15]: 10.9 µM (active)

Cc1ccccc1-c1noc(/C(C#N)=C\c2ccc3c(c2)OCCO3)n1
IC50 [7]: 5.42 µM (active) | IC50 (Caspase-3 [9]): 2.16 µM (active) | IC50 [10]: 4.82 µM (active) | IC50 [13]: > 99 µM (inactive)

COc1ccc(OC)c(/C=C/C(=O)N2C(=O)c3cccc(N)c3C2=O)c1
EC50 (HEK293 [4]): > 59.7 µM (inactive) | AC50 [16]: 3.25 µM (active) | EC50 (HEK293 [5]): > 59.7 µM (inactive) | IC50 [17]: > 66 µM (inactive) | IC50 [18]: > 66 µM (inactive) | AC50 [19]: 26.6 µM (active) | AC50 [20]: 58.5 µM (active)
